According to ChEMBL document CHEMBL3988442, “University of Dundee, Small-Polar-MMV Screening Library” (2021):
Several values for one entry are separate records, joined by “and”; a condition that tells them apart may be missing. Identical values can stand only once.

Tests used:
Leishmania donovani = assay: Leishmania intramacrophage assay; assay type: functional, organism-based; details: for IC50: Leishmania donovani
[1] = microbe, parasite or virus in culture; details: Mycobacterium tuberculosis, 96 h, read-out: pIC50 (converted)
[2] = microbe, parasite or virus in culture; details: Mycobacterium tuberculosis, 72 h, read-out: pIC50 (converted)

| Compound | IC50 (Leishmania donovani) [µM] | further results |
| --- | --- | --- |
| NCC1CCCN(c2nc(-c3ccccc3)nc3c2CCNCC3)C1 (stereo not drawn) | 27.2 | IC50 [1]: 17.7 µM; IC50 [2]: 11.3 µM |
| Cc1nc(C2CCN(C)CC2)cc(N2CCOc3ccc(Cl)cc3C2)n1 | 14.9 | pIC50 (Leishmania donovani): 4.959; IC50 [1]: > 50.1 µM; IC50 [2]: 32.6 µM |
| Cn1cc(CN2CCC(F)(F)C3(CCN(c4cnccn4)C3)C2)cn1 (stereo not drawn) | > 50.1 | IC50 [1]: > 50.1 µM; IC50 [2]: > 50.1 µM |
| COc1ccc(-c2cccc3c2OC(CN)C3)cc1F (stereo not drawn) | 22.2 | pIC50 (Leishmania donovani): 4.618; IC50 [1]: 34.7 µM; IC50 [2]: > 50.1 µM |
| Cc1sc2nc(CCN)nc(N(CCN(C)C)CC3CCCO3)c2c1C (stereo not drawn) | > 50.1 | – |
| C=C(C)CN1CCC(C(=O)c2cc(F)ccc2F)CC1 | > 50.1 | – |
| Fc1ccc(CN2CCC(F)(F)C3(CCN(c4cnccn4)C3)C2)cc1 (stereo not drawn) | > 50.1 | – |
| Cc1ccc(-c2cc(C(F)(F)F)nc(N3CCOCC3)n2)s1 | > 50.1 | – |
| Cc1nc(NCc2cccnc2)c2c(n1)c(C)nn2C | > 50.1 | – |
| CCN1CCCC(O)(c2nc(C)c(CCOc3ccccc3F)s2)CC1 (stereo not drawn) | > 50.1 | – |
| c1ccc(C2CCCN(c3ncnc4c3CCNC4)CC2)cc1 (stereo not drawn) | 18.1 | pIC50 (Leishmania donovani): 4.655; IC50 [1]: > 50.1 µM; IC50 [2]: > 50.1 µM |
| COc1ccc(Cl)cc1CNCCCn1ccnc1 | > 50.1 | – |
| O=C(CCC1CCCC1)N1CCC(c2ncc3c(n2)CCNC3)CC1 | > 50.1 | – |
| CN(c1ncnc2c1CCC2)C1CCCN(c2cccnn2)C1 (stereo not drawn) | > 50.1 | – |
| CNC(=O)C1CCCN(c2nc(-c3ccco3)nc3c2CCNCC3)C1 (stereo not drawn) | > 50.1 | – |
| c1cnc(-c2nc(CN3CCCC(N4CCCC4)C3)cs2)nc1 (stereo not drawn) | > 50.1 | – |
| CN1CCC(N(Cc2ccco2)S(=O)(=O)c2cc(Br)ccc2Br)CC1 | 17.8 | pIC50 (Leishmania donovani): 4.867 |
| CCOCCN1CCN(CC(O)c2ccc(OC)cc2)CC1 (stereo not drawn) | > 50.1 | – |
| CCn1nccc1CN(C)C(=O)Cn1cc2c(n1)c(C)nn2CC | > 50.1 | – |
| Cc1ccc(N2CCCC(N(C)c3ncnc4c3CCC4)C2)nn1 (stereo not drawn) | > 50.1 | – |
| Cc1sc2nc(C(F)(F)F)nc(N3CCN(C)CC3)c2c1C | > 50.1 | – |
| Cc1cc2c(c(-c3cncc(C(=O)N4CCCC4)n3)c1)OC(CN)C2 (stereo not drawn) | 27.5 | pIC50 (Leishmania donovani): 4.717 |

| Compound | IC50 (Leishmania donovani) [µM] | further results |
| --- | --- | --- |
| O=C(NC1COC2(CCN(Cc3ccccn3)CC2)C1)c1ccccn1 (stereo not drawn) | > 50.1 | – |
| Cc1cnn(-c2cccc(N3CCCC3)n2)c1 | > 50.1 | – |
| CCOc1ccc(-c2c(-c3ccccc3)ncn2C2CCNC2)cn1 (stereo not drawn) | > 50.1 | pIC50 (Leishmania donovani): 4.374 |
| CCC(CO)NC(=O)c1ccc2ccc(N(C)CC3CC3)n2c1 (stereo not drawn) | > 50.1 | – |
| Cc1sc2nc(CCN)nc(N3CCN(S(C)(=O)=O)CC3)c2c1C | > 50.1 | – |
| C1CCc2nnc(CNc3nc(C4CC4)nc4c3CCNCC4)n2CC1 | > 50.1 | – |
| COc1cc(C)c(-c2ccc(F)c3c2OC(CN)C3)cc1C (stereo not drawn) | 7.27 | pIC50 (Leishmania donovani): 4.996; IC50 [1]: > 50.1 µM; IC50 [2]: > 50.1 µM |
| COc1cc(OC)cc(-c2cccc3c2OC(CN)C3)c1 (stereo not drawn) | 18.3 | pIC50 (Leishmania donovani): 4.734; IC50 [1]: 20 µM; IC50 [2]: 1.33 µM |
| CN(Cc1ccncc1)C1COC2(CCN(Cc3ccco3)CC2)C1 (stereo not drawn) | > 50.1 | – |
| COc1cccc(Nc2nc(N3CCCC3)nc3c2CNCC3)c1.Cl | 4.47 | pIC50 (Leishmania donovani): 5.277 |
| O=C(O)C1CCCN1c1nc(-c2ccc(Cl)c(Cl)c2)cc(C(F)(F)F)n1 (stereo not drawn) | > 50.1 | – |
| CC(NC(=O)Cn1ccnc1)c1ccc(OCC2CC2)c(F)c1 (stereo not drawn) | > 50.1 | – |
| CCNC(=O)c1ccc2ccc(N(CC)CC)n2c1 | > 50.1 | – |
| Cc1nc(N2C[C@@H](CN3CCCN(C)CC3)[C@@H](CO)C2)c2ccsc2n1 | > 50.1 | – |
| CCc1cc(N2CCCNCC2)n2nc(C)c(C)c2n1 | > 50.1 | – |
| CC(C)Nc1nc2c(c(NC3CC3)n1)CCN(C1CCOCC1)CC2 | 13 | pIC50 (Leishmania donovani): 4.789 |
| CN1CCN(C2COC3(CCN(Cc4ccsc4)CC3)C2)CC1 (stereo not drawn) | > 50.1 | – |
| COCCNc1nc2c(c(NCCc3cccs3)n1)CCNCC2 | 24.2 | – |
| CN(C)C(=O)CNC(=O)c1ccc2ccc(N(C)CC3CC3)n2c1 | > 50.1 | – |
| CN(Cc1cc2cc(F)ccc2[nH]1)c1cc(C2CCCNC2)ncn1 (stereo not drawn) | 21.5 | pIC50 (Leishmania donovani): 4.89 |
| COCCN1CCN(c2ccc3ccc(C(=O)NC4CC4)cn23)CC1 | > 50.1 | – |
| CCN(CC)c1ccc2ccc(C(=O)N(CCOC)CCOC)cn12 | > 50.1 | – |

| Compound | IC50 (Leishmania donovani) [µM] | further results |
| --- | --- | --- |
| Cc1nnc(NCC2(c3ccc(Cl)cc3Cl)CCOCC2)c(C#N)c1C | > 50.1 | – |
| OC(c1ccccc1)C1CCN(Cc2csc(-c3ncccn3)n2)CC1 (stereo not drawn) | > 50.1 | – |
| CN1CCN(c2ccc3ccc(C(=O)N4CCCO4)cn23)CC1 | > 50.1 | – |
| Cc1nc(N(Cc2ccncc2)CC2CCCO2)c2ccsc2n1 (stereo not drawn) | > 50.1 | – |
| CCOc1ccc(CNCC(O)c2ccccc2)cc1Cl (stereo not drawn) | 29.6 | – |
| CN1CCN(C2COC3(CCN(CC4CC4)CC3)C2)CC1 (stereo not drawn) | > 50.1 | – |
| COCCN(C)C1COC2(CCN(Cc3cccc(F)c3)CC2)C1 (stereo not drawn) | > 50.1 | – |
| FC(F)(F)c1cc(-c2cccs2)nc(N2CCN3CCCC3C2)n1 (stereo not drawn) | > 50.1 | – |
| COCCNC(=O)c1ccc2ccc(N(C)CC3CC3)n2c1 | > 50.1 | – |
| CN(CC1CC1)c1ccc2ccc(C(=O)NCCc3ccccc3)cn12 | > 50.1 | – |
| O=C(C1CCC1)N1CCC(c2ncc3c(n2)CCNC3)CC1 | > 50.1 | – |
| CC(=O)N1CCN(c2nc(C(F)(F)F)nc3sc(C)c(C)c23)CC1 | > 50.1 | – |
| O=C(c1ccc2ccc(N3CCN(CC4CC4)CC3)n2c1)N1CCCO1 | > 50.1 | – |
| CC(=O)N1CCCN(Cc2csc(-c3ncccn3)n2)CC1 | > 50.1 | – |
| c1ccc(COC2CCN(c3cncc(-n4cccn4)n3)CC2)cc1 | > 50.1 | – |
| Cn1nccc1C1CCN(Cc2csc(-c3ncccn3)n2)CC1 | > 50.1 | – |
| O=C(NCc1ccccn1)C1=NN(c2ccccc2)C(=O)CN1 | > 50.1 | – |
| FC1(F)CCN(Cc2ccccn2)CC12CCN(c1ncccn1)C2 (stereo not drawn) | > 50.1 | – |
| FC1(F)CCN(Cc2ccncc2)CC12CCN(Cc1ccccn1)C2 (stereo not drawn) | > 50.1 | – |
| CN(c1ncnc2c1cnn2C)C1CCCN(c2cccnn2)C1 (stereo not drawn) | > 50.1 | – |
| COCCNC(=O)c1ccc2ccc(N3CCN(CC4CC4)CC3)n2c1 | > 50.1 | – |
| CCCC1CCCN(Cc2csc(-c3cnn(C)c3)n2)CC1 (stereo not drawn) | > 50.1 | – |

| Compound | IC50 (Leishmania donovani) [µM] | further results |
| --- | --- | --- |
| CCOc1cc(CNCCCn2ccnc2)cc(Cl)c1OCC | 7.08 | – |
| CCc1ccc(CN2CCC3(CC2)CC(N2CCN(C)CC2)CO3)cc1.O=C(O)C(F)(F)F (stereo not drawn) | – | pIC50 (Leishmania donovani): 4.908 and 5.404 |
| COCCN(Cc1sccc1C)c1nc(C)nc2sccc12 | > 50.1 | – |
| CCn1cnnc1CNc1nc(C)nc2scc(CC(C)C)c12 | > 50.1 | – |
| NCC1Cc2cc(Cl)cc(-c3cncc(C(=O)N4CCCCC4)n3)c2O1 (stereo not drawn) | 20.8 | pIC50 (Leishmania donovani): 4.491 |
| COc1c(F)cc(-c2cccc3c2OC(CN)C3)cc1F (stereo not drawn) | 19.2 | pIC50 (Leishmania donovani): 4.693; IC50 [1]: 22.9 µM; IC50 [2]: 36.7 µM |
| COCc1noc(CNc2nc(C3CCCC3)nc3c2CCNCC3)n1 | > 50.1 | – |
| FC1(F)CCN(Cc2ccccn2)CC12CCN(c1cnccn1)C2 (stereo not drawn) | > 50.1 | – |
| Cn1cc(CN2CCC(F)(F)C3(CCN(c4cccnc4)C3)C2)cn1 (stereo not drawn) | > 50.1 | – |
| CCc1nnc(CN2CCN(c3cccc(OC)c3)C(=O)C2)o1 | > 50.1 | – |
| O=C(CC1CCCCC1)N1CCC(c2ncc3c(n2)CCNC3)CC1 | > 50.1 | – |
| Cn1cc(CN2CCC(F)(F)C3(CCN(c4ccccn4)C3)C2)cn1 (stereo not drawn) | > 50.1 | – |
| Cn1cc(CN2CCC(F)(F)C3(CCN(c4ncc(F)cn4)C3)C2)cn1 (stereo not drawn) | > 50.1 | – |
| CCCc1nc(CN2CCCC2Cn2cncn2)cs1 (stereo not drawn) | > 50.1 | – |
| O=C(NCCCN1CCOCC1)c1ccc(-n2ccc3ccccc32)s1 | 15.8 | – |
| CC(C)COc1cccc(-c2nc3c([nH]2)CCNC3)c1 | 19.2 | pIC50 (Leishmania donovani): 4.688 |
| CCOc1ccc(CNCCCn2ccnc2)cc1Br | 14.4 | pIC50 (Leishmania donovani): 4.774 |
| CCOc1ccc(CNCCCn2ccnc2)cc1OC | > 50.1 | – |
| CCC(=O)N1CCC2(C=C(C(=O)N(C)C)c3ccccc32)CC1 | > 50.1 | – |
| CN(c1ncnc2sccc12)C1CCCN(c2cccnn2)C1 (stereo not drawn) | > 50.1 | – |
| OCc1ccncc1NCc1cnc(-c2ccccn2)s1 | > 50.1 | – |
| Cn1cc(CN2CCC(F)(F)C3(CCN(c4ncccn4)C3)C2)cn1 (stereo not drawn) | > 50.1 | – |

| Compound | IC50 (Leishmania donovani) [µM] | further results |
| --- | --- | --- |
| COCCNc1nc(C2CCCC2)nc2c1CCNCC2 | 17.4 | pIC50 (Leishmania donovani): 4.615 |
| Cc1ccc(CN2Cc3c(cnn3C)C(COCC3CC3)C2)s1 (stereo not drawn) | – | pIC50 (Leishmania donovani): 5.151 and 4.71 |
| CCOc1ccc(CNCCCn2ccnc2)cc1Cl | 12.6 | – |
| CC(C)c1nc(-c2cc(C(=O)NCCN(C)C)c3ccccn23)cs1.O=C(O)C(F)(F)F | 18.9 | pIC50 (Leishmania donovani): 4.846; IC50 [1]: > 50.1 µM; IC50 [2]: > 50.1 µM |
| COc1ccc(-c2cc(CNc3ncnc4c3CCNCC4)no2)cc1 | 22.5 | pIC50 (Leishmania donovani): 4.744 |
| Cc1nnc(NCC2(c3ccccc3)CC2)c(C#N)c1C | > 50.1 | – |
| Cc1ccc(CN2CCC(F)(F)C3(CCN(c4cnccn4)C3)C2)o1 (stereo not drawn) | > 50.1 | – |
| CCc1nc2c(N3CCC4(CC3)CC(=O)N(CC(C)C)C4)ncnc2o1 | > 50.1 | pIC50 (Leishmania donovani): 4.305 |
| CCCn1nnc2c(sc3nc(N4CCOCC4)c4c(c32)CCC4)c1=O | > 50.1 | – |
| CC(C(=O)NCc1ccnc(N(C)C)c1)n1cccn1 (stereo not drawn) | > 50.1 | – |
| CN1CCN(C2COC3(CCN(Cc4cccs4)CC3)C2)CC1 (stereo not drawn) | > 50.1 | – |
| O=C(c1c[nH]cn1)N1CCC(F)(F)C2(CCN(c3cccc(F)c3)C2)C1 (stereo not drawn) | > 50.1 | IC50 [1]: > 50.1 µM; IC50 [2]: > 50.1 µM |
| CCN(CC)c1ccc2ccc(C(=O)N3CCCCO3)cn12 | 24.4 | – |
| Cc1ccc(-c2ncc(CNc3cnccc3CO)s2)cc1 | > 50.1 | – |
| N#Cc1ccc(CNC(=O)C2=NN(c3ccccc3)C(=O)CN2)cc1 | > 50.1 | – |
| FC1(F)CCN(Cc2cccnc2)CC12CCN(c1cnccn1)C2 (stereo not drawn) | > 50.1 | – |
| CC(NCc1ccsc1)c1ccc2c(c1)NC(=O)CO2 (stereo not drawn) | > 50.1 | – |
| Cc1nc2c(c(NCC(O)c3ccccc3Cl)n1)CCNCC2 (stereo not drawn) | 44.8 | pIC50 (Leishmania donovani): 4.337 |
| CC(=O)c1sc2nc3c(c(C(F)(F)F)c2c1N)CN(C(C)=O)CC3 | > 50.1 | – |
| c1cc(CN2CCC3(CC2)CC(N2CCCC2)CO3)co1 (stereo not drawn) | > 50.1 | – |
